In patent US20080146656A1, “Use of a steroid sulphatase inhibitor for inhibiting the synthesis of androstenedione and/or testosterone” (priority 2005, published 2008):

Legend:
[1] = biological target: T1, STS (Homo sapiens, UniProt P08842); experiment: Male volunteer study: STS activity after EMATE; type: in vivo, volunteer subject; conditions: 40 mg, FIG. 12
T1 construct: endogenous in cells; host or cells: volunteer subject
T1 sequence (P08842 22-583): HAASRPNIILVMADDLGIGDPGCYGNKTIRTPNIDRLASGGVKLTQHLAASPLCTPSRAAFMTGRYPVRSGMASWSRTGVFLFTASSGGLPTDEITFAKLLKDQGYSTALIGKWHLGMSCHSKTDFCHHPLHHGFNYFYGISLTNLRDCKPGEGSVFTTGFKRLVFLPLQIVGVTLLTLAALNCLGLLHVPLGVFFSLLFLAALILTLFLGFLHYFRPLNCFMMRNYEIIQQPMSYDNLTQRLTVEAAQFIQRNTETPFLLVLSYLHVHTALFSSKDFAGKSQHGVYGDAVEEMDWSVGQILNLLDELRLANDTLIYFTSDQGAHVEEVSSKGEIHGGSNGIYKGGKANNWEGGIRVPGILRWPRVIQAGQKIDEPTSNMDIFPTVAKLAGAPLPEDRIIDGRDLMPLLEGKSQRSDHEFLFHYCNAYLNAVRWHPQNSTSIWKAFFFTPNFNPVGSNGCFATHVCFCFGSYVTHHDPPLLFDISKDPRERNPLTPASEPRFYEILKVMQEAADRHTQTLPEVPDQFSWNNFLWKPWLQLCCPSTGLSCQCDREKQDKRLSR

[2] = system: plasma androstenedione; oestrone sulphate (E1S) to oestrone (E1) ratio; experiment: Male volunteer study: plasma steroids after EMATE; conditions: 40 mg
[3] = biological target: T2, steroid sulphatase (STS) (Homo sapiens, UniProt P08842); experiment: Phase I trial: STS activity in peripheral blood lymphocytes after oral STX64; type: in vivo, humans
T2 construct: endogenous in cells; host or cells: peripheral blood lymphocytes (PBLs) of patients dosed orally with STX64
T2 sequence (P08842 22-583): T1 sequence (P08842 22-583)
Description: (§1) In the Phase I trial STX64 (5 mg or 20 mg) was administered orally as a single test dose on day 1 of the trial. Twenty four hours (24 h) later a blood sample was taken to evaluate STS activity in peripheral blood lymphocytes (PBLs) and also to measure steroid hormone concentrations. On day 8 of the trial patients received daily dosing for 5 days with a further blood sample being collected at the end of this period on day 12 (D12).
STS activity was measured in PBLs isolated from 10 ml blood collected using a vacutainer. The enzyme in the cells was solubilized with phosphate-buffered saline/Triton X-100 and STS activity measured using a physiological (2-3 nM) substrate concentration of ^3H estrone sulphate [^3H-E1S] over a 20 h period.

[4] = system: serum androstenedione, testosterone, E1, E2, DHEAS and DHEA; experiment: Phase I trial: serum steroid hormone concentrations after oral STX64; type: in vivo, humans
Description: The assay for the determination of androstenedione, testosterone, E1 and E2 was the gas chromatographic tandem mass spectroscopic method of Wang et al., (2005). Recombinant cell ultra-sensitive bioassay for measurements of estrogens in postmenopausal women. J Clin Endocrinol Metab (In press).
as §1
Serum concentrations of the steroids listed below were measured: […]

Structure (SMILES)	STS activity [1]	persistence of the reduction in plasma androstenedione concentration [2]	reduction in the plasma androstenedione concentration [2]	oestrone sulphate (E1S) to oestrone (E1) ratio ([2]; FIG. 12)	inhibition at 5 mg ([3]; 5 mg dose, read-out: inhibition of steroid sulphatase (STS) activity, as measured in peripheral blood lymphocytes)	inhibition at 20 mg ([3]; 20 mg dose, read-out: inhibition of steroid sulphatase (STS) activity, as measured in peripheral blood lymphocytes)	STS activity, as measured in PBLs ([3]; 24 h after the test dose and on day 12 of the trial, oral 5 mg or 20 mg, FIG. 2)	serum androstenedione concentrations ([4]; 5 mg and 20 mg doses, FIG. 11 (ii))	serum testosterone concentrations ([4]; 5 mg and 20 mg doses, FIG. 11 (iii))	serum androstenedione concentration ([4]; 24 h and day 12 time points after administration, FIG. 3)	serum testosterone concentration ([4]; 24 h and day 12 time points after administration, FIG. 4)	serum E1 concentration ([4]; Phase I trial, FIG. 5)	serum E2 concentration ([4]; Phase I trial, FIG. 6)	ratios of DHEAS: DHEA ([4]; both the 5 mg and 20 mg doses, FIG. 11 (i))	serum Adione concentration ([4]; individual patient, 24 h after initial single dose, FIGS. 7 and 9)	Adione concentrations ([4]; individual patient, following daily dosing for 5 days (D5+8 h), FIGS. 7 and 9)
C[C@]12CC[C@@H]3c4ccc(OS(N)(=O)=O)cc4CC[C@H]3[C@@H]1CCC2=O [EMATE, oestrone-3-O-sulphamate]	almost completely inhibited	up to 15 days	20-30%	marked increase												
NS(=O)(=O)Oc1ccc2c3c(c(=O)oc2c1)CCCCC3 [STX64]					> 90%	> 90%	almost completely inhibited	marked decreases	marked decreases	decreased significantly	decreased significantly	significant decreases	significant decreases	marked increase	marked decrease	further decrease
